Results from article PMC11589570, “Critical assessment of LC3/GABARAP ligands used for degrader development and ligandability of LC3/GABARAP binding pockets” (Nature Communications, 2024).
Several values for one entry are separate records, joined by “and”; a condition that tells them apart may be missing. Equal values may be shown once.

Experiments:
Assay in all cases: FP assay with Cy5-labelled p62 LIR tracer (protein titration and tracer displacement)
LC3C = LC3C (Homo sapiens, UniProt Q9BXW4); format: binding; conditions: for normalized FP signal, p62 LIR tracer displacement: LC3C, listed as AN1; for compound titration LC3C (displacement curve, FP signal): two replicate columns per compound
Sequence of LC3C (Q9BXW4 1-126): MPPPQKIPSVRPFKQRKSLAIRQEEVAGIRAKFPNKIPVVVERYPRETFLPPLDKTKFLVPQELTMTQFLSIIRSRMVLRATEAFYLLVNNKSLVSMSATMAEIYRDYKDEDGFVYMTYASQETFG

GABARAPL2 = GABARAPL2 (Homo sapiens, UniProt P60520); conditions: GABARAPL2
Sequence of GABARAPL2 (P60520 whole entry): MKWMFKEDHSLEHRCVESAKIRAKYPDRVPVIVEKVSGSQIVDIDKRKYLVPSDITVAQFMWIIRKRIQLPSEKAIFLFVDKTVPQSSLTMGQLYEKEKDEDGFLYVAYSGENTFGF

GABARAP = GABARAP (Homo sapiens, UniProt O95166); format: binding; conditions: for normalized FP signal, p62 LIR tracer displacement: GABARAP, listed as AN1; for compound titration GABARAP (displacement curve, FP signal): two replicate columns per compound
Sequence of GABARAP (O95166 1-116): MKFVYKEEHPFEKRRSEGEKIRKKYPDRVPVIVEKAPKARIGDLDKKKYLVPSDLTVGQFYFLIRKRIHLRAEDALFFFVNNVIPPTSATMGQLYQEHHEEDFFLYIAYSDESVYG

[1] = log10 concentration [M] -3.82391
[2] = log10 concentration [M] -4.1549
[3] = log10 concentration [M] -4.60206
[4] = log10 concentration [M] -5.30103
[5] = log10 concentration [M] -5.69897
[6] = log10 concentration [M] -6.22185
[7] = log10 concentration [M] -6.69897
[8] = log10 concentration [M] -7.30103
[9] = log10 concentration [M] -7.79588
[10] = log10 concentration [M] -8.08092

For `O=C1Nc2ccc(Br)cc2C1=Cc1cc(O)c(O)c(Br)c1` [compound 1], the “normalized FP signal, p62 LIR tracer displacement” value (from here on “normalized FP signal”) (LC3C; [1]) was 79.6 and 85.8, the “normalized FP signal” value (LC3C; [2]) was 89.2 and 87.8 and the “normalized FP signal” value (LC3C; [3]) was 89.4 and 94.4. The “normalized FP signal” value (LC3C; log10 concentration [M] -5) was 89.6 and 94, the “normalized FP signal” value (LC3C; [4]) was 93 and 97.8 and the “normalized FP signal” value (LC3C; [5]) was 84.2 and 88.6. For the same compound, the “normalized FP signal” value (LC3C; [6]) was 82.6 and 92, the “normalized FP signal” value (LC3C; [7]) was 93.4 and 98.2 and the “normalized FP signal” value (LC3C; [8]) was 96.4. The “normalized FP signal” value (LC3C; [9]) was 91.2 and 92.8, the “normalized FP signal” value (LC3C; [10]) was 88.2 and 91.8 and the “compound titration LC3C (displacement curve, FP signal)” value (“compound titration LC3C” for short) (LC3C; [1]) was 79.6 and 85.8. The “compound titration LC3C” value (LC3C; [2]) was 89.2 and 87.8, the “compound titration LC3C” value (LC3C; [3]) was 89.4 and 94.4 and the “compound titration LC3C” value (LC3C; log10 concentration [M] -5) was 89.6 and 94. For the same compound, the “compound titration LC3C” value (LC3C; [4]) was 93 and 97.8, the “compound titration LC3C” value (LC3C; [5]) was 84.2 and 88.6 and the “compound titration LC3C” value (LC3C; [6]) was 82.6 and 92. For the same compound, the “compound titration LC3C” value (LC3C; [7]) was 93.4 and 98.2, the “compound titration LC3C” value (LC3C; [8]) was 96.4 and the “compound titration LC3C” value (LC3C; [9]) was 91.2 and 92.8. The “compound titration LC3C” value (LC3C; [10]) was 88.2 and 91.8, the “normalized FP signal” value (GABARAPL2; log10 concentration [M] -3.82391, listed as AN1) was 91.2 and 81.6 and the “normalized FP signal” value (GABARAPL2; log10 concentration [M] -4.1549, listed as AN1) was 91.2 and 92.8. The “normalized FP signal” value (GABARAPL2; log10 concentration [M] -4.60206, listed as AN1) was 92.8 and 98.4, the “normalized FP signal” value (GABARAPL2; log10 concentration [M] -5) was 109.2 and the “normalized FP signal” value (GABARAPL2; log10 concentration [M] -5.30103, listed as AN1) was 91.6 and 94.8. For the same compound, the “normalized FP signal” value (GABARAPL2; log10 concentration [M] -5.69897, listed as AN1) was 82.8 and 89.2, the “normalized FP signal” value (GABARAPL2; [6]) was 88 and the “normalized FP signal” value (GABARAPL2; log10 concentration [M] -6.22185, listed as AN1) was 104.4. For the same compound, the “normalized FP signal” value (GABARAPL2; [7]) was 89.6, the “normalized FP signal” value (GABARAPL2; [8]) was 94 and the “normalized FP signal” value (GABARAPL2; log10 concentration [M] -7.79588, listed as AN1) was 90.4 and 93.2. For the same compound, the “normalized FP signal” value (GABARAPL2; [10]) was 93.6, the “normalized FP signal” value (GABARAP; [1]) was 88.1034 and 91.0345 and the “normalized FP signal” value (GABARAP; [2]) was 88.6207 and 92.2414. For the same compound, the “normalized FP signal” value (GABARAP; [3]) was 90.1724 and 94.8276, the “normalized FP signal” value (GABARAP; log10 concentration [M] -5) was 93.7931 and 97.069 and the “normalized FP signal” value (GABARAP; [4]) was 96.0345 and 95.3448. For the same compound, the “normalized FP signal” value (GABARAP; [5]) was 85 and 92.069, the “normalized FP signal” value (GABARAP; [6]) was 93.4483 and 97.5862 and the “normalized FP signal” value (GABARAP; [7]) was 98.1034 and 94.3103. The “normalized FP signal” value (GABARAP; [8]) was 97.4138 and 96.5517, the “normalized FP signal” value (GABARAP; [9]) was 92.4138 and 89.8276 and the “normalized FP signal” value (GABARAP; [10]) was 89.1379 and 97.2414. The “compound titration GABARAP (displacement curve, FP signal)” value (“compound titration GABARAP” below) (GABARAP; [1]) was 88.1034 and 91.0345, the “compound titration GABARAP” value (GABARAP; [2]) was 88.6207 and 92.2414 and the “compound titration GABARAP” value (GABARAP; [3]) was 90.1724 and 94.8276. The “compound titration GABARAP” value (GABARAP; log10 concentration [M] -5) was 93.7931 and 97.069, the “compound titration GABARAP” value (GABARAP; [4]) was 96.0345 and 95.3448 and the “compound titration GABARAP” value (GABARAP; [5]) was 85 and 92.069. For the same compound, the “compound titration GABARAP” value (GABARAP; [6]) was 93.4483 and 97.5862, the “compound titration GABARAP” value (GABARAP; [7]) was 98.1034 and 94.3103 and the “compound titration GABARAP” value (GABARAP; [8]) was 97.4138 and 96.5517. The “compound titration GABARAP” value (GABARAP; [9]) was 92.4138 and 89.8276 and the “compound titration GABARAP” value (GABARAP; [10]) was 89.1379 and 97.2414.
